This is an account of results in patent publication US5314913A, “4- or 5-(substituted sulfonyl)methyl-3(2H)-furanones” (American Home Products Corporation, priority 1992, dated 1994).

One assay deals with gastric mucosal lesions produced by ethanol. As to the kind of experiment: Ethanol induced cytotoxicity in rats (gastric mucosal lesions). In kind it is in vivo, Male Sprague-Dawley rats. To be noted: Rattus norvegicus; 10 mg/kg, oral, 1 hour prior to ethanol; read-out: % Inhibition (of lesion formation). As for the experimental part: The purpose of this assay is to evaluate the effectiveness of the compounds of the present invention in preventing the formation of gastric mucosal lesions produced by ethanol. The assay is based on A. Robert, et al: Gastroenterology, 77: 433-443, 1979.
Male Sprague-Dawley rats weighing between 120-150 grams were fasted for 24 hours prior to the experiment (water ad libitum). At least two hours before dosing, the animals were placed in individual cages with wire grid bottoms and denied access to water.
Ethanol was administered orally at 1 mL per animal. The compounds of the present invention were dissolved in water or suspended in water with 0.5% carboxymethylcullulose and administered orally at a dose based on an appropriate standard giving ED50 to ED75 response of cytoprotective activity.
The rats were randomly divided into groups of equal number, ordinarily 10 to a group. The rats were weighed and the individual weights were recorded. Exactly 1 hour prior to the administration of ethanol, the screening group was treated with the compounds of the present invention, and the control group with the vehicle. One hour after administering the ethanol the animals were sacrificed by cervical dislocation. The stomachs were removed, cut along the greater curvature and cleansed of all debris with tap water. The stomachs were set aside and kept moist with saline until the lesions were scored.
Macroscopic lesions on the gastric mucosa were numerically graded. The final grade assigned a stomach was the sum of all the grades.
Streaks longer than 6 mm are graded in multiples of 2 mm.
The degree of cytotoxicity occurring in each group is represented as the mean± S.E.M.
The mean of each treatment group was compared to the control group and expressed as the % inhibition of lesion formation.
On to `CC1(c2ccc(F)cc2)OC=C(CS(=O)(=O)C(C)(C)C)C1=O` (stereo not drawn) [Example 18, 4-[(1,1-Dimethylethyl)sulfonyl]methyl-2-(4-fluorophenyl)-2-methyl-3(2H)-furanone], for which the inhibition in vivo at 10 mg/kg was 80%.
Regarding `CC1(c2ccc(Cl)cc2)OC=C(CS(=O)(=O)C(C)(C)C)C1=O` (stereo not drawn) [Example 19, 4-[(1,1-Dimethylethyl)sulfonyl]methyl-2-(4-chlorophenyl)-2-methyl-3(2H)-furanone], the inhibition in vivo at 10 mg/kg was 45%.

Staying with this assay, now noted: Rattus norvegicus; 25 mg/kg, oral, 1 hour prior to ethanol; read-out: % Inhibition (of lesion formation).
With `CC1(C)OC(CS(=O)(=O)c2ccc(Cl)cc2)=CC1=O` [Example 11, 5-[(4-Chlorophenyl)sulfonyl]methyl-2,2-dimethyl-3(2H)-furanone], the inhibition in vivo at 25 mg/kg turned out to be 44%.
With `CC1(C)OC(CS(=O)(=O)c2ccc(F)cc2)=CC1=O` [Example 12, 5-[(4-Fluorophenyl)sulfonyl]methyl-2,2-dimethyl-3(2H)-furanone], the inhibition in vivo at 25 mg/kg was 6%.
Take `CC1(C)OC(CS(C)(=O)=O)=CC1=O` [Example 13, 2,2-Dimethyl-5-(methylsulfonyl)methyl-3(2H)-furanone]: the inhibition in vivo at 25 mg/kg was 54%.
Regarding `CC1(C)OC(CS(=O)(=O)c2ccc(C(C)(C)C)cc2)=CC1=O` [Example 14, 2,2-Dimethyl-5-[[4-(1,1-dimethylethyl)phenyl]sulfonyl]methyl-3(2H)-furanone], the inhibition in vivo at 25 mg/kg is 43%.
On to `CC1(C)OC=C(CS(=O)(=O)c2ccc(F)cc2)C1=O` [Example 15, 4-[(4-Fluorophenyl)sulfonyl]methyl-2,2-dimethyl-3(2H)-furanone], for which the inhibition in vivo at 25 mg/kg came out at 42%.
The same measure, in the same setting: the value for `CC1(C)OC=C(CS(=O)(=O)c2ccc(C(C)(C)C)cc2)C1=O` [Example 16, 2,2-Dimethyl-4-[[4-(1,1-dimethylethyl)phenyl]sulfonyl]methyl-3(2H)-furanone] was 30%; that for `CC1(C)OC=C(CS(=O)(=O)C(C)(C)C)C1=O` [Example 17, 4-[(1,1-Dimethylethyl)sulfonyl]methyl-2,2-dimethyl-3(2H)-furanone] was 87%.
In the case of `CC1(c2ccccc2)OC=C(CS(=O)(=O)C(C)(C)C)C1=O` (stereo not drawn) [Example 20, 4-[(1,1-Dimethylethyl)sulfonyl]methyl-2-methyl-2-phenyl-3(2H)-furanone], the inhibition in vivo at 25 mg/kg amounted to 76%.

For another assay, the system named is blood glucose levels in diabetic (db/db) mice. As to the kind of experiment: Blood glucose lowering in diabetic db/db mice. Type of assay: in vivo, db/db (C57BL/KsJ) mouse. To be noted: 100 (mg/kg), p.o. by gavage, 4 doses, difference between mean percent change of vehicle and drug treated group. As for the experimental part: The animals are obese, glucose intolerant and have fasting hyperglycemia which is sometimes accompanied by a paradoxical hyperinsulinemia.
On the morning of Day 1, 12-15 mice [male db/db (C57BLKsJ), Jackson Laboratories, 2 to 7 months of age and body weight 35 to 60 g] were fasted for 4 hours, weighed and a baseline blood sample was collected from the tail-tip of each mouse without anesthesia, placed directly into a fluoride-containing tube, mixed and maintained on ice. Food was then returned to the mice. The plasma was separated and levels of glucose in plasma determined by the Abbott VP Analyzer. Because of the variable plasma glucose levels of the db/db mice, the mice were randomly assigned into 3-5 groups (4-5 mice per group) of equivalent mean plasma glucose levels:
On the afternoon of Days 1, 2 and 3 the vehicle, control or test drugs were administered (p.o.) to the ad libitum fed mice. The positive control, ciglitazone [(±)-5-[4-[(1-methylcyclohexyl]benzyl]-thiazolidine-2,4-dione] see Fujita et al. Diabetes, 32, 804 (1983), was given by gavage at a dose of 100 mg/kg/day. The test compounds were given by gavage at a dose of 100 mg/kg/day. The fourth and final dose was administered on the morning of day 4, after the mice had been fasted for 18 h. A blood sample was collected immediately preceeding the last dose, followed by samples collected at 90 and 120 min after drug administration. Insulin is immediately administered to each mouse after the 120 min sample. Serial blood samples were collected at 45 and 120 min after administration. The plasma was separated and the levels of glucose in plasma determined by the Abbot VP analyzer.
Analysis of variance followed by Dunnett's multiple comparison (one-sided) was used to estimate the degree of statistical significance of the difference between the vehicle control group and the individual drug-treated groups. A drug was considered active, at the specific dose administered, if the difference of the plasma glucose level has a p<0.10.
The actual difference between the mean percent change of blood glucose levels of the vehicle and the drug treated group is reported in Table 1.
In the case of “N-[[(4,5-Dihydro-5,5-dimethyl-4-oxo-3-furanyl)methyl]sulfonyl]phenylacetamide [Example 5]”, the “Blood Glucose Levels % Change from Vehicle” value is -23%.

The same assay, now with this note: Mus musculus, po, p.o. by gavage, 4 doses, difference between mean percent change of vehicle and drug treated group, read-out: Blood Glucose Levels % Change from Vehicle.
As to `CC1(COc2ccc(CC3SC(=O)NC3=O)cc2)CCCCC1` (racemic) [Ciglitazaone, (±)-5-[4-[(1-methylcyclohexyl]benzyl]-thiazolidine-2,4-dione, reference compound], the change in vivo at 100 mg/kg is -50 to -24%.
As to `CC1(C)OC=C(CS(=O)(=O)c2ccccc2)C1=O` [Example 1, 2,2-Dimethyl-4-(phenylsulfonyl)methyl-3(2H)-furanone], the change in vivo at 100 mg/kg is -30%.
On to `CC1(C)OC=C(CS(=O)(=O)c2cccc3ccccc23)C1=O` [Example 2, 2,2-Dimethyl-4-[(1-naphthalenyl)sulfonyl]methyl-3(2H)-furanone], for which the change in vivo at 100 mg/kg is -21%.
On to `COc1ccccc1S(=O)(=O)CC1=COC(C)(C)C1=O` [Example 3, 4-[(2-Methoxyphenyl)sulfonyl]methyl-2,2-dimethyl-3(2H)-furanone], for which the change in vivo at 100 mg/kg was -21%.
On the same count and under the same terms, the value for `CC1(C)OC=C(CS(=O)(=O)c2ccc([N+](=O)[O-])cc2)C1=O` [Example 4, 2,2-Dimethyl-4-[(4-nitrophenyl)sulfonyl]methyl-3(2H)-furanone] was -30%.
Turning to `O=C1C(CS(=O)(=O)c2ccccc2)=COC12CCCCC2` [Example 6], the change in vivo at 100 mg/kg is -25%.
Turning to `CC1(C)OC(CS(=O)(=O)c2ccccc2)=CC1=O` [Example 7, 2,2-Dimethyl-5-(phenylsulfonyl)methyl-3(2H)-furanone], the change in vivo at 100 mg/kg was -38%.
For `CC1(C)OC(C(C)(C)S(=O)(=O)c2ccccc2)=CC1=O` [Example 8, 2,2-Dimethyl-5-[1-methyl-1-(phenylsulfonyl)ethyl]-3(2H)-furanone], the change in vivo at 100 mg/kg is -42%.
Turning to `CC1(C)OC(C2(S(=O)(=O)c3ccccc3)CCCC2)=CC1=O` [Example 9, 2,2-Dimethyl-5-[1-(phenylsulfonyl)-1-cyclopentyl]-3(2H)-furanone], the change in vivo at 100 mg/kg was -25%.
Consider `CC1(c2ccccc2)OC(CS(=O)(=O)c2ccccc2)=CC1=O` (stereo not drawn) [Example 10, 2-Methyl-2-phenyl-5-(phenylsulfonyl)methyl-3(2H)-furanone], for which the change in vivo at 100 mg/kg is -19%.

For a further assay, the system named is cholesterol absorption. Briefly: Cholesterol absorption in normal rats (oral [14C] cholesterol, serum radioactivity). In kind it is in vivo. The settings on record: 100 mg/kg, serum radioactivity at 6 hr. As for the experimental part: Cholesterol absorption was measured in normal rats following simultaneous oral doses of the test compounds and radioactive cholesterol according to the method of Cayen and Dvornik except that [^14 C] cholesterol in propylene glycol and olive oil (vehicle for test compound) were used. Serum radioactivity was measured at 6 hr [Cayen, M. N. and Dvornik, D., J. Lipid Res., 20, 162 (1979)].
For `CC1(C)OC=C(CS(=O)(=O)c2ccccc2)C1=O` [Example 1, 2,2-Dimethyl-4-(phenylsulfonyl)methyl-3(2H)-furanone], the “decrease in cholesterol absorption” value is 79%.

Staying with this assay, now noted: 250 mg/kg, serum radioactivity at 6 hr.
As for `CC1(C)OC(CS(=O)(=O)c2ccccc2)=CC1=O` [Example 7, 2,2-Dimethyl-5-(phenylsulfonyl)methyl-3(2H)-furanone], the “decrease in cholesterol absorption” value stood at 58%.
Take `CC1(c2ccccc2)OC(CS(=O)(=O)c2ccccc2)=CC1=O` (stereo not drawn) [Example 10, 2-Methyl-2-phenyl-5-(phenylsulfonyl)methyl-3(2H)-furanone]: the “decrease in cholesterol absorption” value stood at 35%.
